Assay results published in patent publication US11458138B2 (Novartis AG, priority 2017, dated 2022).

How the values were obtained:
limbal stem cells (LSCs) = assay: Differentiation of expanded LSCs into corneal epithelium cells (p63alpha / keratin 12); format: cell-based, human; settings: transferred to conditions that enable differentiation
Text: Shown are views where the transition from the p63alpha-positive cell identity to the keratin-12 identity are occurring.
These characteristics can be observed by immunohistochemistry or FACS.

[1] = system: corneal endothelium cell population; assay: FACS analysis of expanded corneal endothelium cell population (CD73, CD44, CD166, CD105); format: cell-based, human; settings: vs CECs cultured without LATS inhibitor (high levels)
Text: FIG. 21: FACS analysis of the corneal endothlelium cell population expanded in the presence of the LATS inhibitor, compound ex. 47, and CECs cultured in the absence of a LATS inhibitor. The cell population expanded in the presence of the LATS inhibitor expresses low levels of CD73 (FIG. 21a, grey line), CD44 (FIG. 21b, grey line), CD166 (FIG. 21c, grey line) and CD105 (FIG. 21d, grey line); while the cell population cultured without the LATS inhibitor expresses high levels of CD44, CD73, CD105 and CD166 (black lines).
(4) The cells express relatively low levels of CD73. The relative expression levels are lower than cells which have undergone endothelial to mesenchymal transition. The expression of CD73 may be estimated by standard techniques known in the art, such as for example FACS analysis or immunohistochemistry.

LATS1 = LATS1 (Homo sapiens (Human), UniProt O95835); assay: LATS1 biochemical assay (Table 1A, Compound Examples 1-290; method in the earlier part)
Chain of LATS1 (O95835 whole entry, looked up): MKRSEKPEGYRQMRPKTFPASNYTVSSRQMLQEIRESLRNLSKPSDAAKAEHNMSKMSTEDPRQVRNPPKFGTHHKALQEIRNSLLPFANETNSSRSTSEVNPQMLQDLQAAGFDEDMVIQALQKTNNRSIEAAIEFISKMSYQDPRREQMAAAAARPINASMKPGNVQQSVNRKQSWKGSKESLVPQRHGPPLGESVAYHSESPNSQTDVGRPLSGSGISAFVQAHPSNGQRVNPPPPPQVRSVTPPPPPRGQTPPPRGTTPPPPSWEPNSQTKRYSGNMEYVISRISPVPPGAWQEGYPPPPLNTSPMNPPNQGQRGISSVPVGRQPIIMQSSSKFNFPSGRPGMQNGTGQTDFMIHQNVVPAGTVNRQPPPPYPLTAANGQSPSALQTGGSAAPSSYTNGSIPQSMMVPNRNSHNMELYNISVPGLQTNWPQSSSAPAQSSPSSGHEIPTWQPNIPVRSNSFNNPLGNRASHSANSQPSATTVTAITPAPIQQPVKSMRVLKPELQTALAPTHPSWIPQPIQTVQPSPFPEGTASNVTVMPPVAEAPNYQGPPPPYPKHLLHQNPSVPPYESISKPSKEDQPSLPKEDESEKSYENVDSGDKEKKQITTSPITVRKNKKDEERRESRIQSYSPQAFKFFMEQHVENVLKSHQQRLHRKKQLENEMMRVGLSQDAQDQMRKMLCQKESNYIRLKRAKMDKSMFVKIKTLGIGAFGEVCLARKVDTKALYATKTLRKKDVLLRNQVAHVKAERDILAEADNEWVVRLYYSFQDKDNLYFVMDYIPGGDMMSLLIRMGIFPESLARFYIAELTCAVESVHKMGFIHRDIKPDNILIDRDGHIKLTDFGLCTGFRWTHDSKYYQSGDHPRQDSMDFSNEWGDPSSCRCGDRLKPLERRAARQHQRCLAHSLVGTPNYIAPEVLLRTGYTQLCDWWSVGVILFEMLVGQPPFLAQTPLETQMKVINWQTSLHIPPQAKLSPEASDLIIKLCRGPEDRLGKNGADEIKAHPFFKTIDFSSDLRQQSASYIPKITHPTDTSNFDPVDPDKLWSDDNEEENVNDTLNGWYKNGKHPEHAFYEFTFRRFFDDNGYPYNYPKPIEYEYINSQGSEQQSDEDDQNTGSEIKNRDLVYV
Chain of LATS1 (Q7L9L4 whole entry partner, looked up): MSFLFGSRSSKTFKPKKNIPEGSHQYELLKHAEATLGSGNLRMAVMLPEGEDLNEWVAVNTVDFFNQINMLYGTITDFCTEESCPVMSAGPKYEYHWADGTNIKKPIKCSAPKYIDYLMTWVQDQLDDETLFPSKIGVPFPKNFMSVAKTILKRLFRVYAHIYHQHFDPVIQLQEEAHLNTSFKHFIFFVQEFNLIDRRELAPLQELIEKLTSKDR

[2] = system: YAP nuclear translocation in HaCaT cells; assay: YAP Translocation Assay (HaCaT Cells); format: cell-based, human; settings: Homo sapiens, 24 hours
How it was run: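 HaCaT cells (20,000/well) in DMEM + 10% FBS were plated overnight at 37° C, then exposed to compound for 24 h at 37° C. Cells were fixed with PFA, permeabilized with 0.1% Triton/1.5% BSA and imaged by high-content imaging.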

[3] = system: Phospho-YAP (SER127) in liver tissue; assay: In vivo treatment of mice: Phospho-YAP (pYAP) HTRF in liver tissue; settings: mouse liver, single oral dose 30 mg/kg
Experimental: (§1) All animal studies were carried out in accordance with federal, state, local and institutional guidelines governing the use of laboratory animals in research. Male C57BL/6J mice (age 8-10 weeks) were purchased from Jackson Labs (Bar Harbor, Me.). Example 46 was formulated for oral dosing at 3 mg/ml, and Example 261 at 1 mg/ml, in a suspension of methylcellulose:Tween80:Water (0.5:0.5:99). Single oral dose of either compound was at 10 mL/kg body weight. Blood and liver tissue were collected under deep anesthesia (isoflurane) at either 2 h post-dose (for mRNA analysis) or 24 h post-dose (for immunohistochemistry).
Frozen liver tissue was transferred into a Lysing Matrix tube (MP, cat #6913-500) with a 1:50 solution of Protease inhibitor (Sigma-Aldrich, cat #P8340) in Phosphosafe extraction buffer (Novagen, cat #71296-3) and homogenized using the FastPrep-24 (MP biomedicals). […] The protein concentration was measured using the BCA Protein Assay Kit (Pierce cat. 23227) following the manufacturer's protocol. […] The same input quantity was used for each sample, based on total protein content (30-60 ug per sample per well). […] Plates were read on an EnVision (PerkinElmer) with emission wavelengths of 665 nm & 620 nm. The HTRF signal ratio was calculated as Signal(665 nm)/Signal(620 nm))×10000 as specified in the manufacturer's protocol. […]

CTGF mRNA in liver = assay: In vivo treatment of mice: quantitative RT-PCR, CTGF; settings: mouse liver, single oral dose 30 mg/kg, 2 h post-dose, relative to vehicle, mean+/-SEM
Experimental: as §1
(§2) Total liver RNA was isolated from tissue after storage in RNAlater reagent (Qiagen), using a TRIzol method according to the manufacturer's instructions (Life Technologies). Relative mRNA abundance was measured by quantitative RT-PCR using TaqMan gene expression assays and reagents according to standard protocols (Applied Biosystems). Mouse probes for YAP target genes were CTGF (Mm01192933_g1) and Cyr61 (Mm00487498_m1). […] Relative changes in mRNA were calculated by the ΔΔCt method. Changes in gene expression with compound treatment are expressed as fold-change relative to the vehicle group.

Cyr61 mRNA in liver = assay: In vivo treatment of mice: quantitative RT-PCR, Cyr61; settings: mouse liver, single oral dose 30 mg/kg, 2 h post-dose, relative to vehicle, mean+/-SEM
Experimental: as §1, §2

[4] = system: Ki67-positive hepatocytes; assay: In vivo treatment of mice: immunohistochemistry (IHC) for Ki67 in liver; settings: mouse liver, single oral dose 30 mg/kg, 24 h post-dose, relative to vehicle, mean+/-SEM
Experimental: as §1
Liver tissue was fixed in 10% neutral buffered formalin for 24-48 h. Processing and embedding in paraffin was by standard procedures. Sections were cut at 5 microns thickness and stained using a Ventana automated system. Primary antibody for mouse Ki67 was a rabbit IgG (Bethyl Labs). Ki67-positive hepatocytes were quantified by image analysis using the HALO platform. At least 3 sections per animal were analyzed, from the middle of the medial lobe.

Compound | differentiation of expanded LSCs into corneal epithelium cells (keratin 12) (limbal stem cells (LSCs)) | expression of CD73, CD44, CD166 and CD105 by FACS [1] | IC50 (LATS1) | EC50 [2] | pYAP (% of control) [3] | CTGF mRNA (fold-change) (CTGF mRNA in liver) | Cyr61 mRNA (fold-change) (Cyr61 mRNA in liver) | Ki67 IHC (fold-change) [4]
CC(N(C)c1nc(-c2ccncc2)nc2cnccc12)C(F)(F)F (racemic) [Example 47, N-methyl-2-(pyridin-4-yl)-N-(1,1,1-trifluoropropan-2-yl)pyrido[3,4-d]pyrimidin-4-amine] | can differentiate into corneal epithelium cells | low levels | – | – | – | – | – | –
c1cc(-c2nc(NCCCc3nnn[nH]3)c3ccncc3n2)ccn1 [Example 46, 2-(pyridin-4-yl)-N-[3-(1H-1,2,3,4-tetrazol-5-yl)propyl]pyrido[3,4-d]pyrimidin-4-amine] | – | – | > 2.5 µM | > 20 µM | 64 % of control | 2.1 (+/−0.4) fold-change | 3.5 (+/−0.5) fold-change | 3.3 (+/−0.2) fold-change
